# Experimental data from US20240025891A1 (Celgene Corporation, priority 2020, published 2024).
# Like-named read-outs stand apart in the source and are kept apart here.
# System: Onchocerca gutturosa adult male worms
# Assay: Onchocerciasis in vitro screening model Onchocerca gutturosa (worm motility score and MTT/formazan colorimetry)
# Settings: read-out: O. gutt Act class
# Method: Onchocerciasis: In Vitro Screening Model Onchocerca gutturosa
# Parasite and cell cultures. Onchocerca gutturosa adult male worms were obtained by dissection from the nuchal ligament connective tissues of naturally infected cattle, from Gambia, W Africa.
# The worms were maintained for at least 24 h in culture before use in Eagles Minimum Essential Medium with Earl's Salts (Gibco, UK)+10% heat inactivated new born calf serum (Gibco, UK)+antibiotic cover of 200 units/ml penicillin, 200 μg/ml streptomycin and 0.5 μg/ml amphotericin B (Sigma, UK). Only normally active specimens were used in the test. All cultures and assays were conducted at 37° C. under an atmosphere of 5% CO2 in air.
# Drug sensitivity assays. Compound stock solutions were prepared in 100% DMSO unless otherwise indicated and diluted into the medium. Any unused compound stocks were stored at −20° C. Assays were performed in sterile 24-well (2 ml) plates (Falcon, UK).
# Worms were then transferred individually to each well of the plate using fine forceps. Worm viability was assessed using 2 parameters: • The measurement of mean worm motility scores on a scale of 0 (immotile) to 10 (maximum) every 24 h, terminating at 120 h, using an Olympus inverted microscope. • The biochemical evaluation of worm viability using MTT/formazan colorimetry. The MTT assay was carried out after the last motility reading (120 h). Single intact worms were placed in each well of a 48-well plate (Falcon, UK) containing 0.5 ml of a solution consisting of 0.5 mg/ml MTT (Sigma UK) in phosphate buffered saline, and then incubated for 30 min at 37° C. The worms were removed, blotted carefully, and individually transferred to separate wells of a 96-well microtiter plate, each containing 200 μl of DMSO to solubilize the formazan. After 1 h the plate was gently agitated to disperse the color evenly and the absorbance value (optical density) of the resulting formazan solution was determined at 490 nm using a multi-well scanning spectrophotometer (Elisa-reader, Dynatech, UK). Inhibition of formazan formation was correlated with worm damage or death.
# Primary screen. New compounds were usually tested at 1.25×10^−5 M. Also expressed in μg/ml.
# Secondary screen. […] Serial 1 in 4 drug dilutions was carried out to find activity endpoint and EC50 values for motility reduction and inhibition of formazan formation were produced. EC50 values were determined using Excel or Origin V7 scientific graphing and data analysis software.
Compound,IC50 (Onchocerca gutturosa) [nM],IC50 (O. gutturosa adult male worms in vitro) [nM]
"CC(C)Oc1ccc(-c2cnc(Nc3ncccc3N(C)C)o2)nc1 [Example 231, N2-(5-(5-isopropoxy-pyridin-2-yl)oxazol-2-yl)-N3,N3-dimethyl-pyridine-2,3-diamine]",500 to 5000,–
"c1ccc(Nc2nc(-c3ccccn3)co2)nc1 [Example 232, N,4-di (pyridin-2-yl)oxazol-2-amine]",< 200,–
"COc1ccc(-c2cc(Nc3cc(OC(C)C)ccn3)n(C)n2)nc1 [Example 233, 4-isopropoxy-N-(3-(5-methoxypyridin-2-yl)-1-methyl-1H-pyrazol-5-yl)pyridin-2-amine]",500 to 5000,–
"Cc1cccnc1Nc1cc(-c2ccc(OC3CCOCC3)cn2)nn1-c1ccccc1 [Example 234, 3-methyl-N-(1-phenyl-3-(5-(tetrahydro-2H-pyran-4-yloxy)pyridin-2-yl)-1H-pyrazol-5-yl)pyridin-2-amine]",500 to 5000,–
"Cc1ccnc(Nc2cc(-c3ncccc3C)nn2-c2ccccc2)c1 [Example 235, 4-methyl-N-(3-(3-methylpyridin-2-yl)-1-phenyl-1H-pyrazol-5-yl)pyridin-2-amine]",500 to 5000,–
"COc1ccc(-c2cc(Nc3cc(OC(C)C)ccn3)[nH]n2)nc1 [Example 236, 4-isopropoxy-N-(3-(5-methoxypyridin-2-yl)-1H-pyrazol-5-yl)pyridin-2-amine]",500 to 5000,–
"Cc1cccnc1Nc1cc(-c2ccc(OC3CCOCC3)cn2)n[nH]1 [Example 237, 3-methyl-N-(3-(5-(tetrahydro-2H-pyran-4-yloxy)pyridin-2-yl)-1H-pyrazol-5-yl)pyridin-2-amine]",500 to 5000,–
"c1ccc(-c2ccnc(Nc3cc(-c4ccccn4)n[nH]3)c2)cc1 [Example 238, 4-phenyl-N-(3-(pyridin-2-yl)-1H-pyrazol-5-yl)pyridin-2-amine]",< 200,–
N- (cyclohexyl- methyl)- 4-(pyridin- 2-yl)-2-(4- (trifluoromethyl) pyridin-2- ylamino) thiazole-5- carboxamide [Example 202],–,500 to 5000
